From article PMC11093982, “Structural and mechanistic insights into Quinolone Synthase to address its functional promiscuity” (Communications Biology, 2024)
Like-named read-outs stand apart in the source and are kept apart here.

Target: AmQNS (quinolone synthase) (Aegle marmelos, UniProt M1HE54)
Assay: Surface plasmon resonance (SPR) AmQNS-substrate interaction studies
Type: binding
Settings: for association rate constant (kon): SPR association rate; for dissociation rate constant (koff): SPR dissociation rate
From the text: ProteOn XPR array system[21] and ‘GLM’ sensor chip was used for the SPR interaction studies. […] Here, amine coupling works, where the amine groups present in the AmQNS covalently bind to the chemically activated carboxyl groups of the dextran molecules. Channel L3 and L4 were used for immobilization of protein while L2 was used as reference. The extent of non-specific interactions was eliminated or reduced by optimizing the buffer conditions. […] N-methylanthraniloyl-CoA was purchased from TransMIT (Plant MetaChem, www.plantmetachem.com), whereas all other substrates were purchased from Sigma-Aldrich (www.sigmaaldrich.com).
Following AmQNS immobilization and its stability screening, all binding studies were done at 30 °C. The SPR-based system measures the changes in refractive index to investigate the direct interaction between AmQNS and different CoA substrates. […] In our experiments, AmQNS was captured on the surface of the GLM sensor chip and used to screen the preferred substrates (acyl-CoA’s) in the presence and absence of malonyl-CoA. […] The sensogram was prepared by processing the data (after subtraction of L2 responses (reference channel). Baseline drift due to the bulk refractive index change, non-specific binding, matrix effects and injection noise were also corrected using the reference spots. Further, the responses obtained from the AmQNS-small molecular interactions at different concentrations were fitted using the Langmuir 1:1 biomolecular interaction model using the ProteOn Manager software version 3.1.0.6 (Bio-Rad, USA). Equilibrium dissociation constants (KD) were calculated from the ratio of the association and dissociation rates.

[1] = AmQNS immobilized on GLM chip, 30 °C, Langmuir 1:1 model
[2] = SPR, AmQNS immobilized on GLM chip, 30 °C, Langmuir 1:1 model, read-out: KD (KD= kd /ka)
[3] = SPR, AmQNS immobilized on GLM chip, 30 °C, in presence of malonyl-CoA, Langmuir 1:1 model, read-out: KD

Sequence of AmQNS (quinolone synthase) (M1HE54 entry or part of it): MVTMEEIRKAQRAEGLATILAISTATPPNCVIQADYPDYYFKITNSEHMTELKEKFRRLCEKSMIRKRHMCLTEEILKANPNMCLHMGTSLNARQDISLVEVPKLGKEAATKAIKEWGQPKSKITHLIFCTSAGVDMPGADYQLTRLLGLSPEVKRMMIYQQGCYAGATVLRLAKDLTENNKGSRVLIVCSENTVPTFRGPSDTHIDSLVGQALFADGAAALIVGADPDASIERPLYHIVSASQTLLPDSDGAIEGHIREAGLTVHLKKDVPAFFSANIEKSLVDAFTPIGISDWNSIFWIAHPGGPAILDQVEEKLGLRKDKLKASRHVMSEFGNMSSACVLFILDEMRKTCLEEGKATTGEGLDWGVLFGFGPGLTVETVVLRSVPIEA

## CC(C)(COP(=O)(O)OP(=O)(O)OC[C@H]1O[C@@H](n2cnc3c(N)ncnc32)[C@H](O)[C@@H]1OP(=O)(O)O)[C@@H](O)C(=O)NCCC(=O)NCCSC(=O)CC(=O)O [Malonyl-CoA]
[1]
  association rate constant (kon): 78200 M⁻¹ s⁻¹
  dissociation rate constant (koff): 0.0134 s⁻¹
[2]
  Kd: 172 nM

## CCCCCCCCCCCCCCCC(=O)SCCNC(=O)CCNC(=O)[C@H](O)C(C)(C)COP(=O)(O)OP(=O)(O)OC[C@H]1O[C@@H](n2cnc3c(N)ncnc32)[C@H](O)[C@@H]1OP(=O)(O)O [Palmitoyl-CoA]
[1]
  association rate constant (kon): 45800 M⁻¹ s⁻¹
  dissociation rate constant (koff): 0.00417 s⁻¹
[2]
  Kd: 91.1 nM

## CCCC(=O)SCCNC(=O)CCNC(=O)[C@H](O)C(C)(C)COP(=O)(O)OP(=O)(O)OC[C@H]1O[C@@H](n2cnc3c(N)ncnc32)[C@H](O)[C@@H]1OP(=O)(O)O [Butyryl-CoA]
  Kd: 1370 nM
[1]
  association rate constant (kon): 36100 M⁻¹ s⁻¹
  dissociation rate constant (koff): 0.0495 s⁻¹

## CC(C)(COP(=O)(O)OP(=O)(O)OC[C@H]1O[C@@H](n2cnc3c(N)ncnc32)[C@H](O)[C@@H]1OP(=O)(O)O)[C@@H](O)C(=O)NCCC(=O)NCCSC(=O)/C=C/c1ccc(O)cc1 [p-coumaroyl CoA]
[1]
  association rate constant (kon): 591000 M⁻¹ s⁻¹
  dissociation rate constant (koff): 0.0595 s⁻¹
[2]
  Kd: 101 nM

## COc1cc(/C=C/C(=O)SCCNC(=O)CCNC(=O)[C@H](O)C(C)(C)COP(=O)(O)OP(=O)(O)OC[C@H]2O[C@@H](n3cnc4c(N)ncnc43)[C@H](O)[C@@H]2OP(=O)(O)O)cc(OC)c1O [Sinapoyl-CoA]
[1]
  association rate constant (kon): 141000 M⁻¹ s⁻¹
  dissociation rate constant (koff): 0.0163 s⁻¹
[2]
  Kd: 116 nM

## CCCCCCCCCCCCCCCCCC(=O)SCCNC(=O)CCNC(=O)[C@H](O)C(C)(C)COP(=O)(O)OP(=O)(O)OC[C@H]1O[C@@H](n2cnc3c(N)ncnc32)[C@H](O)[C@@H]1OP(=O)(O)O [Stearoyl-CoA]
[1]
  association rate constant (kon): 11700 M⁻¹ s⁻¹
  dissociation rate constant (koff): 0.00193 s⁻¹
[2]
  Kd: 164 nM

## CNc1ccccc1C(=O)SCCNC(=O)CCNC(=O)[C@H](O)C(C)(C)COP(=O)(O)OP(=O)(O)OC[C@H]1O[C@@H](n2cnc3c(N)ncnc32)[C@H](O)[C@@H]1OP(=O)(O)O [N-methylanthraniloyl-CoA]
[1]
  association rate constant (kon): 1e+08 M⁻¹ s⁻¹
  dissociation rate constant (koff): 0.204 s⁻¹
[3]
  Kd: 2.04 nM

## CCCCCC(=O)SCCNC(=O)CCNC(=O)[C@H](O)C(C)(C)COP(=O)(O)OP(=O)(O)OC[C@H]1O[C@@H](n2cnc3c(N)ncnc32)[C@H](O)[C@@H]1OP(=O)(O)O [Hexanoyl-CoA]
[1]
  association rate constant (kon): 963000 M⁻¹ s⁻¹
  dissociation rate constant (koff): 0.00703 s⁻¹
[3]
  Kd: 7.3 nM

## COc1cc(/C=C/C(=O)SCCNC(=O)CCNC(=O)[C@H](O)C(C)(C)COP(=O)(O)OP(=O)(O)OC[C@H]2O[C@@H](n3cnc4c(N)ncnc43)[C@H](O)[C@@H]2OP(=O)(O)O)ccc1O [Feruloyl-CoA]
[1]
  association rate constant (kon): 1e+08 M⁻¹ s⁻¹
  dissociation rate constant (koff): 0.983 s⁻¹
[3]
  Kd: 9.83 nM

## CCCCCCCCCCCCCC(=O)SCCNC(=O)CCNC(=O)[C@H](O)C(C)(C)COP(=O)(O)OP(=O)(O)OC[C@H]1O[C@@H](n2cnc3c(N)ncnc32)[C@H](O)[C@@H]1OP(=O)(O)O [Myristoyl-CoA]
[1]
  association rate constant (kon): 13000 M⁻¹ s⁻¹
  dissociation rate constant (koff): 0.00404 s⁻¹

## CC(C)(COP(=O)(O)OP(=O)(O)OC[C@H]1O[C@@H](n2cnc3c(N)ncnc32)[C@H](O)[C@@H]1OP(=O)(O)O)[C@@H](O)C(=O)NCCC(=O)NCCSC(=O)c1ccccc1 [Benzoyl-CoA]
[1]
  association rate constant (kon): 9510 M⁻¹ s⁻¹
  dissociation rate constant (koff): 0.0267 s⁻¹
[2]
  Kd: 2800 nM
